# Target: T1, wild-type FLT3 receptor (Homo sapiens, UniProt P36888)
# T1 construct: host or cells: Baf3 (murine B cell lymphoma line), stably transfected
# T1 sequence (P36888 27-993): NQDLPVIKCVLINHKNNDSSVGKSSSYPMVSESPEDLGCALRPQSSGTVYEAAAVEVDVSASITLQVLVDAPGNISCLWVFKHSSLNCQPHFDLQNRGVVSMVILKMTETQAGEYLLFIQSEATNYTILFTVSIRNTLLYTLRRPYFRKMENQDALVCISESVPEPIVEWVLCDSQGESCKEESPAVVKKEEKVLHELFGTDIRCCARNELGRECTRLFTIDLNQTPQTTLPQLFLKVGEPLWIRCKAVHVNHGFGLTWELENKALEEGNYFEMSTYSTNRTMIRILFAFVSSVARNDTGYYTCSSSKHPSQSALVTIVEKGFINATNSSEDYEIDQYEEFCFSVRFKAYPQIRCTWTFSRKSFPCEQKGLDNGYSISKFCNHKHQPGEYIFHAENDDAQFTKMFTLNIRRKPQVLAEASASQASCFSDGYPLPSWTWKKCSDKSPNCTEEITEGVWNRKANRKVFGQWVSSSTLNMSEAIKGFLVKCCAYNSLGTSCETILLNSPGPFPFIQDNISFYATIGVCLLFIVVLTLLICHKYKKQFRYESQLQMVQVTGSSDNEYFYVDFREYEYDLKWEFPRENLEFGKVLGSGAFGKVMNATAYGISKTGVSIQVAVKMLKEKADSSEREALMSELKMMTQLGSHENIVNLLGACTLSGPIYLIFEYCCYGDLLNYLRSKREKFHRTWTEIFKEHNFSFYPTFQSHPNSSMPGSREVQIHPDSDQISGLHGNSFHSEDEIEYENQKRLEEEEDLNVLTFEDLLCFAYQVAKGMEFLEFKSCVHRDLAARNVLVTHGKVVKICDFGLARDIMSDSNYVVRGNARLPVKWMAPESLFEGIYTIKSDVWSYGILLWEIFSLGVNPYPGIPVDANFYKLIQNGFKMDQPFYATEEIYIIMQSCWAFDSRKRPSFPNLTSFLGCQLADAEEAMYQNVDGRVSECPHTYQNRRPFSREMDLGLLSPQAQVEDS
# Assay: Cell-based FLT3 receptor ELISA (FLT ligand-induced phosphorylation in Baf3 FLT3 cells)
# Conditions: 100 ng/mL Flt ligand, uncertainty ±20%
# Method in brief: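 Receptor phosphotyrosine measured by sandwich ELISA (anti-FLT3 capture, HRP anti-pTyr, luminescence) in FLT3-transfected murine Baf3 cells given 1 h compound pretreatment and 10 min 100 ng/mL FLT ligand after overnight low-serum starvation; triplicates, IC50 from nonlinear regression.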
row,Compound,IC50 [nM]
1,"O=C(Nc1ccc(N2CCOCC2)cc1)N1CCC(c2ncnc3cc(N4CCC[C@H]4CO)ccc23)CC1 [Example 139, (S)-4-[7-(2-Hydroxymethyl-pyrrolidin-1-yl)-quinazolin-4-yl]-piperidine-1-carboxylic acid (4-morpholin-4-yl-phenyl)-amide]",211
2,"O=C(Nc1ccc(N2CCCC2)cc1)N1CCC(c2ncnc3cc(OCCCN4CCC[C@H]4CO)ccc23)CC1 [Example 161, (S)-4-{7-[3-(2-Hydroxymethyl-pyrrolidin-1-yl)-propoxy]-quinazolin-4-yl}-piperidine-1-carboxylic acid (4-pyrrolidin-1-yl-phenyl)-amide]",59
3,"O=C(Nc1ccc(N2CCCC2)cc1)N1CCC(c2ncnc3cc(OC4CCOCC4)ccc23)CC1 [Compound 189, 4-[7-(Tetrahydro-pyran-4-yloxy)-quinazolin-4-yl]-piperidine-1-carboxylic acid (4-pyrrolidin-1-yl-phenyl)-amide]",104
4,"CN1CCN(c2ccc3c(C4CCN(C(=O)Nc5ccc(N6CCCC6)cc5)CC4)ncnc3c2)CC1 [Example 159, 4-[7-(4-Methyl-piperazin-1-yl)-quinazolin-4-yl]-piperidine-1-carboxylic acid (4-pyrrolidin-1-yl-phenyl)-amide]",6
5,"O=C(Nc1ccc(N2CCCC2)cc1)N1CCC(c2ncnc3cc(N4CCC4)ccc23)CC1 [Example 173, 4-(7-Azetidin-1-yl-quinazolin-4-yl)-piperidine-1-carboxylic acid (4-pyrrolidin-1-yl-phenyl)-amide]",2
6,"CN1CCN(CCOc2ccc3c(C4CCN(C(=O)Nc5ccc(N6CCOCC6)cc5)CC4)ncnc3c2)CC1 [Example 156, 4-{7-[2-(4-Methyl-piperazin-1-yl)-ethoxy]-quinazolin-4-yl}-piperidine-1-carboxylic acid (4-morpholin-4-yl-phenyl)-amide]",32
7,"O=C(Nc1ccc(N2CCCC2)cc1)N1CCC(c2ncnc3cc(N4CCN(c5ccncc5)CC4)ccc23)CC1 [Compound 194, 4-[7-(4-Pyridin-4-yl-piperazin-1-yl)-quinazolin-4-yl]-piperidine-1-carboxylic acid (4-pyrrolidin-1-yl-phenyl)-amide]",11
8,"O=C(Nc1ccc(N2CCOCC2)cc1)N1CCC(c2ncnc3cc(N4CCNC4=O)ccc23)CC1 [Compound 197, 4-[7-(2-Oxo-imidazolidin-1-yl)-quinazolin-4-yl]-piperidine-1-carboxylic acid (4-morpholin-4-yl-phenyl)-amide]",78
9,"CS(=O)(=O)N1CC(Oc2ccc3c(C4CCN(C(=O)Nc5ccc(N6CCCC6)cc5)CC4)ncnc3c2)C1 [Example 171, 4-[7-(1-Methanesulfonyl-azetidin-3-yloxy)-quinazolin-4-yl]-piperidine-1-carboxylic acid (4-pyrrolidin-1-yl-phenyl)-amide]",10
10,"O=C(Nc1ccc(N2CCCC2)cc1)N1CCC(c2ncnc3cc(OCCN4CCOC4=O)ccc23)CC1 [Example 147, 4-{7-[2-(2-Oxo-oxazolidin-3-yl)-ethoxy]-quinazolin-4-yl}-piperidine-1-carboxylic acid (4-pyrrolidin-1-yl-phenyl)-amide]",0.2
11,"CC(C)Oc1ccc(NC(=O)N2CCC(c3ncnc4ccc(N5CCN(C)CC5)cc34)CC2)cc1 [Example 131, 4-[6-(4-Methyl-piperazin-1-yl)-quinazolin-4-yl]-piperidine-1-carboxylic acid (4-isopropoxy-phenyl)-amide]",226
12,"CCN1CCN(c2ccc3c(C4CCN(C(=O)Nc5ccc(N6CCCC6)cc5)CC4)ncnc3c2)CC1 [Compound 187, 4-[7-(4-Ethyl-piperazin-1-yl)-quinazolin-4-yl]-piperidine-1-carboxylic acid (4-pyrrolidin-1-yl-phenyl)-amide]",12
13,"COc1cc2ncnc(C3CCN(C(=O)Nc4ccc(N5CCCCC5)cc4)CC3)c2cc1OC [Example 19, 4-(6,7-Dimethoxy-quinazolin-4-yl)-piperidine-1-carboxylic acid (4-piperidin-1-yl-phenyl)-amide]",17
14,"O=C(Nc1ccc(N2CCOCC2)cc1)N1CCC(c2ncnc3cc(OCCN4CCOC4=O)ccc23)CC1 [Example 148, 4-{7-[2-(2-Oxo-oxazolidin-3-yl)-ethoxy]-quinazolin-4-yl}-piperidine-1-carboxylic acid (4-morpholin-4-yl-phenyl)-amide]",83
15,"CN1CCN(CCCOc2ccc3c(C4CCN(C(=O)Nc5ccc(N6CCCC6)cc5)CC4)ncnc3c2)CC1 [Example 158, 4-{7-[3-(4-Methyl-piperazin-1-yl)-propoxy]-quinazolin-4-yl}-piperidine-1-carboxylic acid (4-pyrrolidin-1-yl-phenyl)-amide]",0.4
16,"CS(=O)(=O)CCNc1ccc2c(C3CCN(C(=O)Nc4ccc(N5CCOCC5)cc4)CC3)ncnc2c1 [Example 146, 4-[7-(2-Methanesulfonyl-ethylamino)-quinazolin-4-yl]-piperidine-1-carboxylic acid (4-morpholin-4-yl-phenyl)-amide]",87
17,"COc1cc2ncnc(C3CCN(C(=O)Nc4ccc(OC5CCC5)nc4)CC3)c2cc1OC [Example 17, 4-(6,7-Dimethoxy-quinazolin-4-yl)-piperidine-1-carboxylic acid (6-cyclobutoxy-pyridin-3-yl)-amide]",292
18,"COc1cc2ncnc(C3CCN(C(=O)Nc4ccc5ncsc5c4)CC3)c2cc1OC [Example 24, 4-(6,7-Dimethoxy-quinazolin-4-yl)-piperidine-1-carboxylic acid benzothiazol-6-ylamide]",2600
19,"CS(=O)(=O)N1CCN(c2ccc3c(C4CCN(C(=O)Nc5ccc(N6CCCC6)cc5)CC4)ncnc3c2)CC1 [Example 167, 4-[7-(4-Methanesulfonyl-piperazin-1-yl)-quinazolin-4-yl]-piperidine-1-carboxylic acid (4-pyrrolidin-1-yl-phenyl)-amide]",3
20,"O=C(Nc1ccc(N2CCCC2)cc1)N1CCC(c2ncnc3cc(O[C@@H]4CCOC4)ccc23)CC1 [Compound 191, (R)-4-[7-(Tetrahydro-furan-3-yloxy)-quinazolin-4-yl]-piperidine-1-carboxylic acid (4-pyrrolidin-1-yl-phenyl)-amide]",144
21,"CN1CCN(c2ccc3c(C4CCN(C(=O)Nc5ccc(N6CCOCC6)cc5)CC4)ncnc3c2)CC1 [Example 135, 4-[7-(4-Methyl-piperazin-1-yl)-quinazolin-4-yl]-piperidine-1-carboxylic acid (4-morpholin-4-yl-phenyl)-amide]",27
22,"O=C(COc1ccc2c(C3CCN(C(=O)Nc4ccc(N5CCCC5)cc4)CC3)ncnc2c1)N1CCOCC1 [Example 172, 4-[7-(2-Morpholin-4-yl-2-oxo-ethoxy)-quinazolin-4-yl]-piperidine-1-carboxylic acid (4-pyrrolidin-1-yl-phenyl)-amide]",149
23,"CN(C)[C@@H]1CCN(c2ccc3c(C4CCN(C(=O)Nc5ccc(N6CCCC6)cc5)CC4)ncnc3c2)C1 [Example 149, (R)-4-[7-(3-Dimethylamino-pyrrolidin-1-yl)-quinazolin-4-yl]-piperidine-1-carboxylic acid (4-pyrrolidin-1-yl-phenyl)-amide]",3
24,"CN(C)[C@@H]1CCN(c2ccc3c(C4CCN(C(=O)Nc5ccc(N6CCOCC6)cc5)CC4)ncnc3c2)C1 [Example 150, (R)-4-[7-(3-Dimethylamino-pyrrolidin-1-yl)-quinazolin-4-yl]-piperidine-1-carboxylic acid (4-morpholin-4-yl-phenyl)-amide]",19
25,"O=C(Nc1ccc(N2CCCC2)cc1)N1CCC(c2ncnc3cc(-n4ccnc4)ccc23)CC1 [Compound 180, 4-(7-Imidazol-1-yl-quinazolin-4-yl)-piperidine-1-carboxylic acid (4-pyrrolidin-1-yl-phenyl)-amide]",10
26,"O=C(Nc1ccc(N2CCCC2)cc1)N1CCC(c2ncnc3cc(N4CCN(c5ncccn5)CC4)ccc23)CC1 [Compound 193, 4-[7-(4-Pyrimidin-2-yl-piperazin-1-yl)-quinazolin-4-yl]-piperidine-1-carboxylic acid (4-pyrrolidin-1-yl-phenyl)-amide]",3
27,"O=C(Nc1ccc(N2CCCC2)cc1)N1CCC(c2ncnc3cc(N4CCOCC4)ccc23)CC1 [Compound 181, 4-(7-Morpholin-4-yl-quinazolin-4-yl)-piperidine-1-carboxylic acid (4-pyrrolidin-1-yl-phenyl)-amide]",5
